Experimental data as given in patent US20080096894A1, “Anti-Bacterial Compounds” (ASTON UNIVERSITY, priority 2005, published 2008).
Structures can show the parent of a compound that is named as a salt. Where two headings read alike, the source gives them in different places.

How the values were obtained:
[1] = system: human mononuclear leucocytes (MNL, white blood cells); conditions: rat liver microsomes added; Coleman et al 1999; cited from earlier work
MRSA = test: MIC, agar dilution, multipoint inoculator; assay type: cell-based, methicillin-resistant Staphylococcus aureus
Outline: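 Agar dilution MIC on Mueller Hinton agar, multipoint inoculator delivering 10^4 colony forming units per spot. MRSA values are ranges across ten clinical MRSA strains; S. aureus NCTC 6571 as reference strain.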

[2] = system: human mononuclear leucocytes (MNL, white blood cells); test: direct leucocyte toxicity, tryptan blue exclusion, 18 hours; assay type: cell-based; conditions: human, 18 h, 1 mM
Protocol: The in vitro assay used human mononuclear leucocytes (MNL, white blood cells) which were incubated with the test compound for 18 hours and cell death determined by tryptan blue exclusion (tryptan blue is a dye, which stains dead cells, whilst living cells extrude it).
The toxicity of 4PYcq and the aldehyde cq and pyridine-4-carboxamidrazone precursors were assessed using the same in vitro assay with human mononuclear leucocytes as that described above. The toxicity of related compounds, 2-hydroxybenzylidene-pyridine-2-carboxamidrazone 4PYbw and benzylidenepyridine-2-carboxamidrazone 4PYaa were also examined.

Bacillus subtilis = test: MIC, doubling dilution in 96-well microtitre plate; assay type: cell-based
Protocol: (§1) The compound was tested as follows. […] The wells were inoculated with organism ([…] of medium containing 10^6 cfu/mL) and the plates were incubated at 37° C. overnight. Where growth of organism occurred this was observed as a small button when viewed from underneath the plate. The MIC was determined as the lowest concentration inhibiting growth.

Moraxella catarrhalis = test: MIC, doubling dilution in 96-well microtitre plate; assay type: cell-based
Protocol: as §1

Micrococcus luteus = test: MIC, doubling dilution in 96-well microtitre plate; assay type: cell-based
Protocol: as §1

Micrococcus roseus = test: MIC, doubling dilution in 96-well microtitre plate; assay type: cell-based
Protocol: as §1

Enterococcus faecium = test: MIC, doubling dilution in 96-well microtitre plate; assay type: cell-based
Protocol: as §1

Bacillus megarerium = test: MIC, doubling dilution in 96-well microtitre plate; assay type: cell-based
Protocol: as §1

Bacillus cereus = test: MIC, doubling dilution in 96-well microtitre plate; assay type: cell-based
Protocol: as §1

[3] = system: Enterococcus faecalis NCTC 5957; test: MIC, doubling dilution in 96-well microtitre plate; assay type: cell-based
Protocol: as §1

[4] = system: Staphylococcus aureus NCTC 6571; test: MIC, doubling dilution in 96-well microtitre plate; assay type: cell-based
Protocol: as §1

[5] = system: Staphylococcus epidermidis NCTC 11047; test: MIC, doubling dilution in 96-well microtitre plate; assay type: cell-based
Protocol: as §1

Bacillus polymyxa = test: MIC, doubling dilution in 96-well microtitre plate; assay type: cell-based
Protocol: as §1

[6] = system: Staphylococcus aureus (MRSA) 96-7475; test: MIC, doubling dilution in 96-well microtitre plate; assay type: cell-based
Protocol: as §1

[7] = system: Streptococcus bovis NCTC 11436; test: MIC, doubling dilution in 96-well microtitre plate; assay type: cell-based
Protocol: as §1

[8] = system: Staphylococcus aureus W11 MRSA; test: MIC, doubling dilution in 96-well microtitre plate; assay type: cell-based
Protocol: as §1

[9] = system: Staphylococcus aureus NCTC 10788; test: MIC, doubling dilution in 96-well microtitre plate; assay type: cell-based
Protocol: as §1

E. faecium = test: MIC, agar dilution, multipoint inoculator; assay type: cell-based, Enterococcus faecium; conditions: Enterococcus faecium
Outline: (§2)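 Read-out is the MIC by agar dilution. Plates contain Mueller Hinton agar; bacteria are applied via multipoint inoculator, 10^4 CFU per spot.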

P. auriginosa = test: MIC, agar dilution, multipoint inoculator; assay type: cell-based, Pseudomonas aeruginosa; conditions: Pseudomonas aeruginosa, NCTC6749, 18 h
Protocol: (§3) This activity was measured using a multipoint inoculator method as follows. The MIC for each compound was measured using an agar dilution method (Onda, H., et al., Int. J. Antimicrob. Agents. 18, 263 (2001)) (Mueller Hinton agar) by means of a multipoint inoculator delivering 10^4 colony forming units per spot.

S. aureus = test: MIC, agar dilution, multipoint inoculator; assay type: cell-based, Staphylococcus aureus; conditions: Staphylococcus aureus
Outline: as §2

S. maltophilia = test: MIC, agar dilution, multipoint inoculator; assay type: cell-based; conditions: Stenotrophomonas maltophilia, NCTC10257, 18 h
Outline: as §2

E. faecalis = test: MIC, agar dilution, multipoint inoculator; assay type: cell-based; conditions: Enterococcus faecalis, upper value of MIC reading
Outline: as §2

B. bronchiseptica = test: MIC, agar dilution, multipoint inoculator; assay type: cell-based; conditions: Bordetella bronchiseptica, NCTC8344, 18 h
Outline: as §2

S. aboni = test: MIC, agar dilution, multipoint inoculator; assay type: cell-based; conditions: S. aboni NCTC 6017; upper value of MIC reading
Outline: as §2

S. haemolyticus = test: MIC, agar dilution, multipoint inoculator; assay type: cell-based; conditions: Staphylococcus haemolyticus, 18 h
Outline: as §2

S. epidemisis = test: MIC, agar dilution, multipoint inoculator; assay type: cell-based, Staphylococcus epidermidis; conditions: Staphylococcus epidermidis
Outline: as §2

E. cloacae = test: MIC, agar dilution, multipoint inoculator; assay type: cell-based, Enterobacter cloacae; conditions: Enterobacter cloacae, NCTC11582, 18 h
Protocol: as §3

S. marcesens = test: MIC, agar dilution, multipoint inoculator; assay type: cell-based, Serratia marcescens; conditions: Serratia marcescens, 18 h
Protocol: as §3

E. coli = test: MIC, agar dilution, multipoint inoculator; assay type: cell-based, Escherichia coli
Protocol: as §3

[10] = system: vancomycin resistant enterococci; test: MIC, agar dilution, multipoint inoculator; assay type: cell-based
Protocol: as §3
It will be noted that compound 4PYcq was active against all strains of MRSA as well as all other Gram positive bacteria. For this reason it was further tested against some vancomycin resistant enterococci, using the multipoint inoculator method described above. It can be seen from Table 5 that the high level activity was retained.

K. pneumoniae = test: MIC, agar dilution, multipoint inoculator; assay type: cell-based, Klebsiella pneumoniae; conditions: Klebsiella pneumoniae, 18 h
Protocol: as §3

E. faecium isolates = conditions: against 86% of E. faecium isolates; cited from earlier work
[11] = Enterococcus faecium ATCC 10541

## N/C(=N\N=C\c1cccc2ccccc12)c1ccccn1 [Compound 2PYal]
[1]
  cytotoxicity in the presence of the metabolising system (in words): marked reduction in cytotoxicity
MRSA; Staphylococcus aureus, MRSA, 18 h, panel of ten MRSA strains (clinical isolates), read-out: MRSA MIC range
  MIC: > 256 µg/mL
[2]
  % Leucocyte Death: 17.1 ± 4.9%

## NC(=NN=Cc1cccc2ccccc12)c1cc[n+]([O-])cc1 [Compound 4PYOal]
Bacillus subtilis
  MIC: 16 to 32 µg/mL
Moraxella catarrhalis
  MIC: 16 to 32 µg/mL
Micrococcus luteus
  MIC: 16 to 32 µg/mL
Micrococcus roseus
  MIC: 16 to 32 µg/mL
Enterococcus faecium; [11]
  MIC: 16 to 32 µg/mL
Bacillus megarerium
  MIC: 16 to 32 µg/mL
Bacillus cereus
  MIC: 8 to 16 µg/mL

## NC(=NN=Cc1c2ccccc2cc2ccccc12)c1cc[n+]([O-])cc1 [Compound 4PYOam]
Bacillus subtilis
  MIC: 64 to 128 µg/mL
[3]
  MIC: 64 to 128 µg/mL
Micrococcus roseus
  MIC: 32 to 64 µg/mL
Enterococcus faecium; [11]
  MIC: 64 to 128 µg/mL

## CC(C)(C)c1cc(C=NN=C(N)c2cc[n+]([O-])cc2)c(O)c(C(C)(C)C)c1 [Compound 4PYOcq]
Bacillus subtilis
  MIC: 64 to 128 µg/mL
[4]
  MIC: 16 to 32 µg/mL
Moraxella catarrhalis
  MIC: 32 to 64 µg/mL
[3]
  MIC: 64 to 128 µg/mL
[5]
  MIC: 32 to 64 µg/mL
Micrococcus luteus
  MIC: 8 to 16 µg/mL
Micrococcus roseus
  MIC: 1 to 2 µg/mL
Bacillus polymyxa
  MIC: 1 to 2 µg/mL
Enterococcus faecium; [11]
  MIC: 32 to 64 µg/mL
Enterococcus faecium; Enterococcus faecium NCTC 7171
  MIC: 32 to 64 µg/mL
Bacillus megarerium
  MIC: 32 to 64 µg/mL
Bacillus cereus
  MIC: 16 to 32 µg/mL
[6]
  MIC: 64 to 128 µg/mL
[7]
  MIC: 64 to 128 µg/mL

## NC(=NN=Cc1ccccc1Sc1ccc(Cl)cc1)c1cc[n+]([O-])cc1 [Compound 4PYOeh]
Moraxella catarrhalis
  MIC: 64 to 128 µg/mL
Micrococcus roseus
  MIC: 32 to 64 µg/mL

## CC(=O)Nc1ccc(C=NN=C(N)c2cc[n+]([O-])cc2)cc1 [Compound 4PYOfa]
Bacillus subtilis
  MIC: 4 to 8 µg/mL
Micrococcus roseus
  MIC: 16 to 32 µg/mL
Enterococcus faecium; [11]
  MIC: 16 to 32 µg/mL
Bacillus megarerium
  MIC: 16 to 32 µg/mL
Bacillus cereus
  MIC: 8 to 16 µg/mL

## CC(C)(C)c1ccc(C=NN=C(N)c2cc[n+]([O-])cc2)cc1 [Compound 4PYOfb]
Bacillus subtilis
  MIC: 8 to 16 µg/mL
Moraxella catarrhalis
  MIC: 32 to 64 µg/mL
Micrococcus roseus
  MIC: 8 to 16 µg/mL
Enterococcus faecium; [11]
  MIC: 16 to 32 µg/mL
Bacillus megarerium
  MIC: 16 to 32 µg/mL
Bacillus cereus
  MIC: 16 to 32 µg/mL

## CC(C)(C)c1ccc(O)c(C=NN=C(N)c2cc[n+]([O-])cc2)c1 [Compound 4PYOfe]
Moraxella catarrhalis
  MIC: 8 to 16 µg/mL
Micrococcus luteus
  MIC: 8 to 16 µg/mL

## CC(C)(C)c1cc(C=NN=C(N)c2cc[n+]([O-])cc2)cc(C(C)(C)C)c1 [Compound 4PYOff]
[8]
  MIC: 32 to 64 µg/mL
Bacillus subtilis
  MIC: 32 to 64 µg/mL
[4]
  MIC: 32 to 64 µg/mL
Moraxella catarrhalis
  MIC: 16 to 32 µg/mL
[3]
  MIC: 32 to 64 µg/mL
[5]
  MIC: 32 to 64 µg/mL
[9]
  MIC: 32 to 64 µg/mL
Micrococcus luteus
  MIC: 32 to 64 µg/mL
Enterococcus faecium; [11]
  MIC: 32 to 64 µg/mL
Bacillus cereus
  MIC: 32 to 64 µg/mL
[6]
  MIC: 32 to 64 µg/mL
[7]
  MIC: 32 to 64 µg/mL

## CC(C)(C)c1cccc(C=NN=C(N)c2cc[n+]([O-])cc2)c1O [Compound 4PYOfg]
Moraxella catarrhalis
  MIC: 4 to 8 µg/mL
Micrococcus luteus
  MIC: 8 to 16 µg/mL
[7]
  MIC: 32 to 64 µg/mL

## CN[C@H](CC(C)C)C(=O)N[C@H]1C(=O)N[C@@H](CC(N)=O)C(=O)N[C@H]2C(=O)N[C@H]3C(=O)N[C@H](C(=O)N[C@H](C(=O)O)c4cc(O)cc(O)c4-c4cc3ccc4O)[C@H](O)c3ccc(c(Cl)c3)Oc3cc2cc(c3O[C@@H]2O[C@H](CO)[C@@H](O)[C@H](O)[C@H]2O[C@H]2C[C@](C)(N)[C@H](O)[C@H](C)O2)Oc2ccc(cc2Cl)[C@H]1O [Vanc., Vancomycin hydrochloride, reference compound]
E. faecium; 18 h
  MIC: 0.12 µg/mL
E. faecium; NCTC7171, 18 h
  MIC: 0.12 µg/mL
P. auriginosa
  MIC: > 16 µg/mL
S. aureus; 18 h
  MIC: 0.25 µg/mL
S. aureus; NCTC6571, 18 h
  MIC: 0.05 µg/mL
S. aureus; NCTC10788, 18 h
  MIC: 0.12 µg/mL
S. maltophilia
  MIC: > 16 µg/mL
E. faecalis; 18 h, E. faecalis EBH1
  MIC: 0.12 µg/mL
E. faecalis; 18 h, E. faecalis Isolate 1
  MIC: 0.25 µg/mL
E. faecalis; 18 h, E. faecalis Isolate 2
  MIC: 0.25 µg/mL
E. faecalis; 18 h, E. faecalis Isolate 3
  MIC: 0.12 µg/mL
E. faecalis; 18 h, E. faecalis Isolate 4
  MIC: 16 µg/mL
E. faecalis; 18 h, E. faecalis Isolate 5
  MIC: 2 µg/mL
E. faecalis; NCTC5957, 18 h, E. faecalis NCTC 5957
  MIC: 0.25 µg/mL
B. bronchiseptica
  MIC: > 16 µg/mL
S. aboni
  MIC: 0.05 µg/mL
S. haemolyticus
  MIC: 8 µg/mL
S. epidemisis; 18 h
  MIC: 8 µg/mL
S. epidemisis; NCTC11047, 18 h
  MIC: 8 µg/mL
E. cloacae
  MIC: > 16 µg/mL
MRSA; MRSA Isolate 1, upper value of MIC reading, in µg/mL
  MIC: 0.12
MRSA; MRSA Isolate 2, upper value of MIC reading, in µg/mL
  MIC: 0.12
MRSA; MRSA Isolate 3, upper value of MIC reading, in µg/mL
  MIC: 0.12
MRSA; MRSA Isolate 4, upper value of MIC reading, in µg/mL
  MIC: 0.12
MRSA; MRSA Isolate 5, upper value of MIC reading, in µg/mL
  MIC: 0.12
MRSA; MRSA Isolate 6, upper value of MIC reading, in µg/mL
  MIC: 0.12
MRSA; MRSA Isolate 7, upper value of MIC reading, in µg/mL
  MIC: 0.12
MRSA; MRSA Isolate 8, upper value of MIC reading, in µg/mL
  MIC: 0.12
MRSA; MRSA Isolate 9, upper value of MIC reading, in µg/mL
  MIC: 0.12
MRSA; Staphylococcus aureus, 18 h
  MIC: 0.12 µg/mL
S. marcesens
  MIC: > 16 µg/mL
E. coli; E. coli W3110R+, upper value of MIC reading
  MIC: > 16 µg/mL
E. coli; Escherichia coli, 18 h
  MIC: > 16 µg/mL
[10]; Culture 3001562
  MIC: 4 to 8 µg/mL
[10]; Culture 3002043
  MIC: 4 to 8 µg/mL
[10]; Culture 3002066
  MIC: 4 to 8 µg/mL
[10]; Culture 3005323
  MIC: > 16 µg/mL
[10]; Culture 3005426
  MIC: 4 to 8 µg/mL
[10]; Culture 3102095
  MIC: > 16 µg/mL
[10]; Culture 30053530
  MIC: > 16 µg/mL
K. pneumoniae
  MIC: > 16 µg/mL

## quinupristin/dalfopristin
E. faecium isolates
  MIC: ≤ 2 µg/mL
